In PMC10261806, “Development of lentil peptides with potent antioxidant, antihypertensive, and antidiabetic activities along with umami taste” (Food Science & Nutrition, 2023):

Target: T1, rat intestinal α-glucosidase
T1 construct: gene Si; native commercial rat intestinal preparation (Sigma I1630, usually intestinal acetone powder)
Assay: p-nitrophenyl-α-D-glucopyranoside hydrolysis, absorbance at […] nm
Type: biochemical
Details: 5 mM PNPG stock, pH 6.8-6.9, 37 °C, 10 min preincubation; positive control

C[C@H]1O[C@H](O[C@H]2[C@H](O)[C@@H](O)[C@@H](O[C@H]3[C@H](O)[C@@H](O)C(O)O[C@@H]3CO)O[C@@H]2CO)[C@H](O)[C@@H](O)[C@@H]1N[C@H]1C=C(CO)[C@@H](O)[C@H](O)[C@H]1O (stereo partly shown) [acarbose]
IC50 of inhibitory activity / α-Glucosidase: 510 ± 70 µg/mL
